Here are results for 28 compounds from US11123337B2, “4-methylsulfonyl-substituted piperidine urea compounds” (MYOKARDIA, INC., priority 2015, dated 2021).

The assay addresses bovine cardiac myosin (Bos taurus, UniProt Q9BE39). Description: Myosin activation assay (PK/LDH-coupled ATPase, bovine cardiac myofibrils). Conditions: AC20 = concentration at which total response is increased by twenty percent. The format is biochemical. Put shortly:
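Values are the concentrations raising the ATPase rate by 20% or 50% over DMSO, from 10-point dose responses fitted with four parameters. Rate is NADH loss at 340 nm via PK/LDH coupling, read 15 min at room temperature, in pH 6.8 PIPES with 50 μM ATP. Bovine cardiac myofibrils were held at pCa ~6 or pCa 10.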

Sequence of bovine cardiac myosin (Q9BE39 whole entry): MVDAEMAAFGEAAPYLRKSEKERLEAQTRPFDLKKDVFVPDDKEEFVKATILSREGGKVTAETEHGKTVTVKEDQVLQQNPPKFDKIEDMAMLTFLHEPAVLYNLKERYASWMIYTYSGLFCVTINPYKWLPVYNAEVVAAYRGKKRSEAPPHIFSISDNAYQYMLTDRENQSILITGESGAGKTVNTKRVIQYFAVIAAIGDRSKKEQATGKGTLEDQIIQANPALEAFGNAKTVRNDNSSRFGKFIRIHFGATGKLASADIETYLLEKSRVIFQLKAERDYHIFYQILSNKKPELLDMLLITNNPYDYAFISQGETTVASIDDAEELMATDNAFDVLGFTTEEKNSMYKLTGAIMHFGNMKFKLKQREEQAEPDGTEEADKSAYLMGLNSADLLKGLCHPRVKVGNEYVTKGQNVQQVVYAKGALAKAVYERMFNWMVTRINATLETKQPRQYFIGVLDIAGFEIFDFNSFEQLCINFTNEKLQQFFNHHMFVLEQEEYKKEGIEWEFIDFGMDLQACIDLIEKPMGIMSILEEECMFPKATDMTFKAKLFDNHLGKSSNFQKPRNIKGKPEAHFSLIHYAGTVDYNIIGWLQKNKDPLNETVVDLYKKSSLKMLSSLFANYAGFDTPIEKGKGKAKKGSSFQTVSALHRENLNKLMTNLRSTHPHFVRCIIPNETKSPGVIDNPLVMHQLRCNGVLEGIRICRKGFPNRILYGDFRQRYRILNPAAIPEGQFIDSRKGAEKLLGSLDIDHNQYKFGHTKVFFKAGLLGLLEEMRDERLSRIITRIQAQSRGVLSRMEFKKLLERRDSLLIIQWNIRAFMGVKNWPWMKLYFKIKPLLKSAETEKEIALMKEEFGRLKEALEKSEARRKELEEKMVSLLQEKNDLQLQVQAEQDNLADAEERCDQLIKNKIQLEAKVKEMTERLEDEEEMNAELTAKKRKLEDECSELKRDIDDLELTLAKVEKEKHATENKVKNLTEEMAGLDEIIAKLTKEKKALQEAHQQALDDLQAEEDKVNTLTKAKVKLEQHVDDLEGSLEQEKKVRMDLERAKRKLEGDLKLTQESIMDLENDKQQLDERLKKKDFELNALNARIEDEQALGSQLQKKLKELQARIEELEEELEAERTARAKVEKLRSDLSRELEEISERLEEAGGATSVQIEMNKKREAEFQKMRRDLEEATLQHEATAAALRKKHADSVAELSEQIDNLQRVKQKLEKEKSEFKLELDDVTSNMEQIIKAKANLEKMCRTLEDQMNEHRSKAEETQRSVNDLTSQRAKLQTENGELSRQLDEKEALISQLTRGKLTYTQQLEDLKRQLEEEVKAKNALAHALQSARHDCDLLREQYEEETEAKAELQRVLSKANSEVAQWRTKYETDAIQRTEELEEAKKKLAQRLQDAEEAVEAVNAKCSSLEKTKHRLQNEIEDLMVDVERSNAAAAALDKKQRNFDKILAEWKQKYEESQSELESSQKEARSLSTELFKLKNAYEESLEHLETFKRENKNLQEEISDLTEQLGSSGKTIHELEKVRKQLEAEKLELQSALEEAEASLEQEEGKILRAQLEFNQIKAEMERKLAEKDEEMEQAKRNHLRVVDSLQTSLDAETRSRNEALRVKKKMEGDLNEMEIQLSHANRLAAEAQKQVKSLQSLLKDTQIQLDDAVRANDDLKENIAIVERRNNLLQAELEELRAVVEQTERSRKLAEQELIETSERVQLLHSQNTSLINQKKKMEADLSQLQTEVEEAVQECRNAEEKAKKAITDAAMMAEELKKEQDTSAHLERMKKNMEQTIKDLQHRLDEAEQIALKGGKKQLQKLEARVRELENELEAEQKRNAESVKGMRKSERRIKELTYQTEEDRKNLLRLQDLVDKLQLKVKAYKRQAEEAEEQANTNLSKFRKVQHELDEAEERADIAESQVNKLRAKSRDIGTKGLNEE
Sequence of bovine cardiac myosin (P85100 whole entry partner): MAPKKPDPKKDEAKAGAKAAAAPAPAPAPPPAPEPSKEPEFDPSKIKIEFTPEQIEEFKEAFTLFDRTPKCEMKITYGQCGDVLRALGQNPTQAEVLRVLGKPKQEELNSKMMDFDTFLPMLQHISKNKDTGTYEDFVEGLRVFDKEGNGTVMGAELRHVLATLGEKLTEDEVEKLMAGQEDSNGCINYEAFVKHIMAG
Sequence of bovine cardiac myosin (Q3SZE5 whole entry partner): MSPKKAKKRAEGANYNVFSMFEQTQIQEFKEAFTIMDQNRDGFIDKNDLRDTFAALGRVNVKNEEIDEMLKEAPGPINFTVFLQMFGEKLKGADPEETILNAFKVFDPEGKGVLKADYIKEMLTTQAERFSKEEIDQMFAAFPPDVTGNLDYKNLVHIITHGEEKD

`CC(F)(C1CCN(C(=O)Nc2cnoc2)CC1)S(=O)(=O)c1cccc(F)c1` (stereo not shown) [Compound 235, 4-(1-fluoro-1-((3-fluorophenyl)sulfonyl)ethyl)-N-(isoxazol-4-yl)piperidine-1-carboxamide]: the “Myosin Activation (AC20)” value is “+++ (+++ represents myosin activation value AC20 < 2 μM)”.

Consider `Cn1nccc1S(=O)(=O)C(C)(F)C1CCN(C(=O)Nc2cnns2)CC1` (stereo not shown) [Compound 267, 4-(1-fluoro-1-((1-methyl-1H-pyrazol-5-yl)sulfonyl)ethyl)-N-(1,2,3-thiadiazol-5-yl)piperidine-1-carboxamide], for which the “Myosin Activation (AC20)” value was “+++ (+++ represents myosin activation value AC20 < 2 μM)”. As for `Cc1cc(NC(=O)N2CCC([C@](C)(F)S(=O)(=O)c3cc(C(F)(F)F)nn3C)CC2)ccn1` [Compound 232, (R)-4-(1-fluoro-1-((1-methyl-3-(trifluoromethyl)-1H-pyrazol-5-yl)sulfonyl)ethyl)-N-(2-methylpyridin-4-yl)piperidine-1-carboxamide], the “Myosin Activation (AC20)” value was “+++ (+++ represents myosin activation value AC20 < 2 μM)”. The result for `Cc1ccc(NC(=O)N2CCC(C(C)(F)S(=O)(=O)c3cn(C)nc3C(F)(F)F)CC2)cn1` (stereo not shown) [Compound 247, 4-(1-fluoro-1-((1-methyl-3-(trifluoromethyl)-1H-pyrazol-4-yl)sulfonyl)ethyl)-N-(6-methylpyridin-3-yl)piperidine-1-carboxamide] reads “+ (+ represents myosin activation value AC20 > 5 μM)”; that for `CC(C)(C1CCN(C(=O)Nc2ccnc(Cl)c2)CC1)S(=O)(=O)c1cccc(F)c1` [Compound 160, N-(2-chloropyridin-4-yl)-4-(2-((3-fluorophenyl)sulfonyl)propan-2-yl)piperidine-1-carboxamide], “++ (++ represents myosin activation value AC20 from 2 μM-5 μM)”. Then `Cc1cc(NC(=O)N2CCC(C(C)(C)S(=O)(=O)c3cn(C)nc3C(F)F)CC2)no1` [Compound 144, 4-(2-((3-(difluoromethyl)-1-methyl-1H-pyrazol-4-yl)sulfonyl)propan-2-yl)-N-(5-methylisoxazol-3-yl)piperidine-1-carboxamide], with “+ (+ represents myosin activation value AC20 > 5 μM)”; and `CC(C)n1cc(S(=O)(=O)CC2CCN(C(=O)Nc3ccncc3)CC2)cn1` [Compound 1, 4-(((1-Isopropyl-1H-pyrazol-4-yl)sulfonyl)methyl)-N-(pyridin-4-yl)piperidine-1-carboxamide], with “+ (+ represents myosin activation value AC20 > 5 μM)”; and `CC(F)(C1CCN(C(=O)Nc2nnco2)CC1)S(=O)(=O)c1cccc(F)c1` (stereo not shown) [Compound 222, 4-(1-fluoro-1-((3-fluorophenyl)sulfonyl)ethyl)-N-(1,3,4-oxadiazol-2-yl)piperidine-1-carboxamide], with “+ (+ represents myosin activation value AC20 > 5 μM)”. Take `Cc1ccccc1S(=O)(=O)C(C)(C)C1CCN(C(=O)Nc2ccns2)CC1` [Compound 213, N-(isothiazol-5-yl)-4-(2-(o-tolylsulfonyl)propan-2-yl)piperidine-1-carboxamide]: the “Myosin Activation (AC20)” value was “+++ (+++ represents myosin activation value AC20 < 2 μM)”. The result for `Cn1cc(S(=O)(=O)[C@@](C)(F)C2CCN(C(=O)Nc3ccc(F)nc3)CC2)c(C(F)F)n1` [Compound 259, (R)-4-(1-((3-(difluoromethyl)-1-methyl-1H-pyrazol-4-yl)sulfonyl)-1-fluoroethyl)-N-(6-fluoropyridin-3-yl)piperidine-1-carboxamide] reads “+++ (+++ represents myosin activation value AC20 < 2 μM)”; that for `CC(F)(C1CCN(C(=O)Nc2ccon2)CC1)S(=O)(=O)c1ccc(C(F)(F)F)cc1` (stereo not shown) [Compound 8, 4-(1-Fluoro-1-((4-(trifluoromethyl)phenyl)sulfonyl)ethyl)-N-(isoxazol-3-yl)piperidine-1-carboxamide], “+++ (+++ represents myosin activation value AC20 < 2 μM)”; that for `Cc1cc(NC(=O)N2CCC(C(C)(C)S(=O)(=O)c3cn(C)nc3C(F)F)CC2)cnn1` [Compound 154, 4-(2-((3-(difluoromethyl)-1-methyl-1H-pyrazol-4-yl)sulfonyl)propan-2-yl)-N-(6-methylpyridazin-4-yl)piperidine-1-carboxamide], “+ (+ represents myosin activation value AC20 > 5 μM)”. Then `Cc1ccc(S(=O)(=O)CC2CCN(C(=O)Nc3ccncc3)CC2)cc1` [Compound 38, N-(pyridin-4-yl)-4-(tosylmethyl)piperidine-1-carboxamide], with “+ (+ represents myosin activation value AC20 > 5 μM)”; and `Cn1nccc1S(=O)(=O)C(F)(F)C1CCN(C(=O)Nc2ccnnc2)CC1` [Compound 94, 4-(difluoro((1-methyl-1H-pyrazol-5-yl)sulfonyl)methyl)-N-(pyridazin-4-yl)piperidine-1-carboxamide], with “+ (+ represents myosin activation value AC20 > 5 μM)”. The result for `CC(C)(C1CCN(C(=O)Nc2cnns2)CC1)S(=O)(=O)c1ccc(C(F)(F)F)cc1` [Compound 182, N-(1,2,3-thiadiazol-5-yl)-4-(2-((4-(trifluoromethyl)phenyl)sulfonyl)propan-2-yl)piperidine-1-carboxamide] reads “+++ (+++ represents myosin activation value AC20 < 2 μM)”; that for `CC(C)(C1CCN(C(=O)Nc2cn[nH]c2)CC1)S(=O)(=O)c1cccc(F)c1` [Compound 146, 4-(2-((3-fluorophenyl)sulfonyl)propan-2-yl)-N-(1H-pyrazol-4-yl)piperidine-1-carboxamide], “++ (++ represents myosin activation value AC20 from 2 μM-5 μM)”. Consider `O=C(Nc1ccnnc1)N1CCC(C2(S(=O)(=O)c3cccc(F)c3)CC(F)(F)C2)CC1` [Compound 28, 4-(3,3-Difluoro-1-((3-fluorophenyl)sulfonyl)cyclobutyl)-N-(pyridazin-4-yl)piperidine-1-carboxamide], for which the “Myosin Activation (AC20)” value was “++ (++ represents myosin activation value AC20 from 2 μM-5 μM)”. The result for `Cn1cc(S(=O)(=O)[C@@](C)(F)C2CCN(C(=O)Nc3ccc(C(F)(F)F)nc3)CC2)c(C(F)F)n1` [Compound 261, (R)-4-(1-((3-(difluoromethyl)-1-methyl-1H-pyrazol-4-yl)sulfonyl)-1-fluoroethyl)-N-(6-(trifluoromethyl)pyridin-3-yl)piperidine-1-carboxamide] reads “+ (+ represents myosin activation value AC20 > 5 μM)”.

Turning to `CCn1nccc1S(=O)(=O)C(F)(F)C1CCN(C(=O)Nc2ccnnc2)CC1` [Compound 85, 4-(((1-ethyl-1H-pyrazol-5-yl)sulfonyl)difluoromethyl)-N-(pyridazin-4-yl)piperidine-1-carboxamide], the “Myosin Activation (AC20)” value was “+ (+ represents myosin activation value AC20 > 5 μM)”. Then `Cn1cc(S(=O)(=O)C(C)(F)C2CCN(C(=O)Nc3ccc(F)nc3)CC2)c(C(F)(F)F)n1` (stereo not shown) [Compound 244, 4-(1-fluoro-1-((1-methyl-3-(trifluoromethyl)-1H-pyrazol-4-yl)sulfonyl)ethyl)-N-(6-fluoropyridin-3-yl)piperidine-1-carboxamide], with “+ (+ represents myosin activation value AC20 > 5 μM)”; and `Cn1nccc1S(=O)(=O)C(C)(C)C1CCN(C(=O)Nc2ccnnc2)CC1` [Compound 192, 4-(2-((1-methyl-1H-pyrazol-5-yl)sulfonyl)propan-2-yl)-N-(pyridazin-4-yl)piperidine-1-carboxamide], with “+++ (+++ represents myosin activation value AC20 < 2 μM)”. The result for `Cc1ccc(NC(=O)N2CCC(C(C)(C)S(=O)(=O)c3cccc(F)c3)CC2)cn1` [Compound 162, 4-(2-((3-fluorophenyl)sulfonyl)propan-2-yl)-N-(6-methylpyridin-3-yl)piperidine-1-carboxamide] reads “+ (+ represents myosin activation value AC20 > 5 μM)”. The result for `COc1ccc(S(=O)(=O)C(C)(F)C2CCN(C(=O)Nc3ccnnc3)CC2)cn1` (stereo not shown) [Compound 9, 4-(1-fluoro-1-((6-methoxypyridin-3-yl)sulfonyl)ethyl)-N-(pyridazin-4-yl)piperidine-1-carboxamide] reads “+++ (+++ represents myosin activation value AC20 < 2 μM)”; that for `Cn1nc(C(F)(F)F)cc1S(=O)(=O)C(C)(C)C1CCN(C(=O)Nc2ccon2)CC1` [Compound 126, N-(isoxazol-3-yl)-4-(2-((1-methyl-3-(trifluoromethyl)-1H-pyrazol-5-yl)sulfonyl)propan-2-yl)piperidine-1-carboxamide], “++ (++ represents myosin activation value AC20 from 2 μM-5 μM)”.

For `C[C@@](F)(C1CCN(C(=O)Nc2ccon2)CC1)S(=O)(=O)c1ccc(OC(F)F)nc1` [Compound 311, (S)-4-(1-((6-(difluoromethoxy)pyridin-3-yl)sulfonyl)-1-fluoroethyl)-N-(isoxazol-3-yl)piperidine-1-carboxamide], the “Myosin Activation (AC20)” value is listed as “+ (+ represents myosin activation value AC20 > 5 μM)”.

As for `Cn1cncc1S(=O)(=O)C(C)(C)C1CCN(C(=O)Nc2ccnnc2)CC1` [Compound 148, 4-(2-((1-methyl-1H-imidazol-5-yl)sulfonyl)propan-2-yl)-N-(pyridazin-4-yl)piperidine-1-carboxamide], the “Myosin Activation (AC20)” value is reported as “+ (+ represents myosin activation value AC20 > 5 μM)”. Then `CN(C)c1ncccc1S(=O)(=O)C(F)(F)C1CCN(C(=O)Nc2ccnnc2)CC1` [Compound 96, 4-(((2-(dimethylamino)pyridin-3-yl)sulfonyl)difluoromethyl)-N-(pyridazin-4-yl)piperidine-1-carboxamide], with “+ (+ represents myosin activation value AC20 > 5 μM)”; and `CC(F)(C1CCN(C(=O)Nc2ccnnc2)CC1)S(=O)(=O)c1ccccc1C(F)(F)F` (stereo not shown) [Compound 57, 4-(1-fluoro-1-((2-(trifluoromethyl)phenyl)sulfonyl)ethyl)-N-(pyridazin-4-yl)piperidine-1-carboxamide], with “++ (++ represents myosin activation value AC20 from 2 μM-5 μM)”.
